Test results from US10975068B2, “6-aminopyridin-3-yl thiazoles as modulators of RORγT” (Janssen Pharmaceutica NV, priority 2016, dated 2021).

What was measured:
[1] = target: full-length human RORγt (Homo sapiens (Human), UniProt P51449); assay: RORγt (full-length human) reporter assay, Conditions B or C; format: cell-based; settings: for RORγt (FL) Reporter Assay B or C, % inhibition (value marked *) / IC50: Conditions B or C; for RORγt (FL) Reporter Assay B or C, % inhibition (value marked *): marked *: footnote not given; for IC50: read-out: RORγt (FL) Reporter Assay B or C, IC50; for inhibition at 6 µM: read-out: RORγt (FL) Reporter Assay B or C, % inhibition @ 6 μM, Conditions B or C
Sequence of full-length human RORγt (P51449 other isoform, or with tags, fused parts or gaps): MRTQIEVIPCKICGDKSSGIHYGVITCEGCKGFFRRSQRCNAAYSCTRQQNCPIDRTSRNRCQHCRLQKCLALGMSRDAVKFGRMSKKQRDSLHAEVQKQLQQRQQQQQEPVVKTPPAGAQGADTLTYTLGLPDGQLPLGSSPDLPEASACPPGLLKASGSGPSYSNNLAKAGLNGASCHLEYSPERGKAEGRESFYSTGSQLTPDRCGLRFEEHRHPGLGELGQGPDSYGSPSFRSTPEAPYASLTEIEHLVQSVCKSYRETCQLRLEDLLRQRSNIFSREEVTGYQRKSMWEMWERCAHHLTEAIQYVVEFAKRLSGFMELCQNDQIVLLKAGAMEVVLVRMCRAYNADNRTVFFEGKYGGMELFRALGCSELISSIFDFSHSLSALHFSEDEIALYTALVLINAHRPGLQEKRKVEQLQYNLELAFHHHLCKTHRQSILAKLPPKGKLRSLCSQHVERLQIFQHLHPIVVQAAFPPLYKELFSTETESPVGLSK
Outline: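 HEK293T cells transiently co-transfected with GAL4-DBD–full-length human RORγt (nt 142-1635, NM_001001523.1) plus GAL4-firefly and CMV-Renilla luciferase reporters; compounds added 4-6 h post-transfection for 16-20 h in 1.3% FBS, 0.1% DMSO. Firefly signal normalized to DMSO and saturating reference compound, then to Renilla; IC50 from concentration plots.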

[2] = system: IL-17 production by CD4 T cells; assay: Human Th17 assay; format: cell-based; settings: read-out: Human Th17 Assay, IC50
From the text: The human Th17 assay tests the effect of RORγt modulatory compounds on IL-17 production by CD4 T cells under conditions which favor Th17 differentiation. Total CD4^+ T cells were isolated from the peripheral blood mononuclear cells (PBMC) of healthy donors using a CD4^+ T cell isolation kit II, following the manufacturer's instructions (Miltenyi Biotec). Cells were resuspended in a medium of RPMI-1640 supplemented with 10% fetal bovine serum, penicillin, streptomycin, glutamate, and β-mercaptoethanol and were added to 96-well plates at 1.5×10^5 per 100 μL per well. 50 μL of compound at titrated concentrations in DMSO were added into each well at final DMSO concentration at 0.2%. Cells were incubated for 1 hour, then 50 μL of Th17 cell differentiation medium was added to each well. The final concentrations of antibodies and cytokines (R&D Systems) in differentiation medium were: 3×10^6/mL anti-CD3/CD28 beads (prepared using human T cell activation/expansion kit, Miltenyi Biotec), 10 μg/mL anti-IL4, 10 μg/mL anti-IFNγ, 10 ng/mL IL1β, 10 ng/mL IL23, 50 ng/mL IL6, 3 ng/mL TGFβ and 20 U/mL IL2. Cells were cultured at 37° C. and 5% CO2 for 3 days. Supernatants were collected and the accumulated IL-17 in culture was measured by using MULTI-SPOT® Cytokine Plate following manufacture's instruction (Meso Scale Discovery). The plate was read using Sector Imager 6000, and IL-17 concentration was extrapolated from the standard curve. The IC50s were determined by GraphPad.

RORγt (FL) Reporter Assay B or C, % inhibition (value marked *) [1]	IC50 [1] [nM]	IC50 [2] [nM]	inhibition at 6 µM [1] [%]	Compound
107* %	23	18	–	CC[C@H](Nc1cc(C(F)(F)F)c(-c2sc(C(=O)NCC(C)(C)O)nc2C(=O)N2CCC[C@@H]2C)cn1)C1CC1 (relative stereo) [Example 128, 5-(6-(((S*)-1-Cyclopropylpropyl)amino)-4-(trifluoromethyl)pyridin-3-yl)-N-(2-hydroxy-2-methylpropyl)-4-((S)-2-methylpyrrolidine-1-carbonyl)thiazole-2-carboxamide]
95* %	6.8	63	–	C[C@H]1CCCN1C(=O)c1nc(C(=O)NC[C@@H](O)C(C)(C)O)sc1-c1cnc(NC(C)(C)C)cc1C(F)(F)F (single isomer, unassigned) [Example 243, 5-(6-(tert-Butylamino)-4-(trifluoromethyl)pyridin-3-yl)-N—((R*)-2,3-dihydroxy-3-methylbutyl)-4-((S)-2-methylpyrrolidine-1-carbonyl)thiazole-2-carboxamide]
–	8.4	16	106	C[C@H]1CCCCN1C(=O)c1nc(C(=O)NCC(C)(C)O)sc1-c1cnc(NC2CCCC2)cc1C(F)(F)F [Example 27, (S)-5-(6-(Cyclopentylamino)-4-(trifluoromethyl)pyridin-3-yl)-N-(2-hydroxy-2-methylpropyl)-4-(2-methylpiperidine-1-carbonyl)thiazole-2-carboxamide]
–	14	52	92.2	C[C@H](Nc1cc(C(F)F)c(-c2sc(C(=O)NCC(C)(C)O)nc2C(=O)N2CCCC[C@@H]2C)cn1)C1CC1 [Example 37, 5-(6-(((S)-1-Cyclopropylethyl)amino)-4-(difluoromethyl)pyridin-3-yl)-N-(2-hydroxy-2-methylpropyl)-4-((S)-2-methylpiperidine-1-carbonyl)thiazole-2-carboxamide]
–	15	81	108	C[C@H]1CCCN1C(=O)c1nc(C(=O)NCC(C)(C)O)sc1-c1cnc(NC2CCCC2)cc1C(F)(F)F [Example 38, (S)-5-(6-(Cyclopentylamino)-4-(trifluoromethyl)pyridin-3-yl)-N-(2-hydroxy-2-methylpropyl)-4-(2-methylpyrrolidine-1-carbonyl)thiazole-2-carboxamide]
–	13	56	102	C[C@H](Nc1cc(C(F)(F)F)c(-c2sc(C(=O)NCC(C)(C)O)nc2C(=O)N2CCC[C@@H]2C)cn1)C1CC1 [Example 40, 5-(6-(((S)-1-Cyclopropylethyl)amino)-4-(trifluoromethyl)pyridin-3-yl)-N-(2-hydroxy-2-methylpropyl)-4-((S)-2-methylpyrrolidine-1-carbonyl)thiazole-2-carboxamide]
–	7.6	43	103	C[C@H]1CCCCN1C(=O)c1nc(C(=O)NCC(C)(C)O)sc1-c1cnc(NC2CCCC2)cc1C(F)F [Example 41, (S)-5-(6-(Cyclopentylamino)-4-(difluoromethyl)pyridin-3-yl)-N-(2-hydroxy-2-methylpropyl)-4-(2-methylpiperidine-1-carbonyl)thiazole-2-carboxamide]
96* %	5.4	9.8	–	C[C@H](Nc1cc(C(F)(F)F)c(-c2sc(C(=O)NCC(C)(C)O)nc2C(=O)N2CCCC[C@@H]2C)cn1)C(F)(F)F [Example 47, N-(2-Hydroxy-2-methylpropyl)-4-((S)-2-methylpiperidine-1-carbonyl)-5-(4-(trifluoromethyl)-6-(((S)-1,1,1-trifluoropropan-2-yl)amino)pyridin-3-yl)thiazole-2-carboxamide]
